Reference: PubChem BioAssay (NCI)
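Here, GI50 denotes the concentration required for 50% inhibition of growth. Definition used: TGI = concentration required for complete inhibition of growth.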

Columns and labels:
Assay in all cases: NCI-60 cell line screen, 384-well format; in the data active = GI50 below about 0.43 µM; inactive = the rest
786-0 renal = test system: 786-0 renal
A498 renal = test system: A498 renal
A549 NSCLC = test system: A549 NSCLC
ACHN renal = test system: ACHN renal
BT-549 breast = test system: BT-549 breast
CAKI-1 renal = test system: CAKI-1 renal
COLO 205 colon = test system: COLO 205 colon
DU-145 prostate = test system: DU-145 prostate
EKVX NSCLC = test system: EKVX NSCLC
HCC-2998 colon = test system: HCC-2998 colon
HCT-116 colon = test system: HCT-116 colon
HCT-15 colon = test system: HCT-15 colon
HL-60(TB) leukemia = test system: HL-60(TB) leukemia
HOP-62 NSCLC = test system: HOP-62 NSCLC
HOP-92 NSCLC = test system: HOP-92 NSCLC
HS 578T breast = test system: HS 578T breast
HT29 colon = test system: HT29 colon
IGROV1 ovarian = test system: IGROV1 ovarian
KM12 colon = test system: KM12 colon
LOX IMVI melanoma = test system: LOX IMVI melanoma
M14 melanoma = test system: M14 melanoma
MALME-3M melanoma = test system: MALME-3M melanoma
MCF7 breast = test system: MCF7 breast
MDA-MB-231 breast = test system: MDA-MB-231 breast
MDA-MB-435 melanoma = test system: MDA-MB-435 melanoma
MDA-MB-468 breast = test system: MDA-MB-468 breast
MOLT-4 leukemia = test system: MOLT-4 leukemia
NCI-H226 lung = test system: NCI-H226 lung
NCI-H23 lung = test system: NCI-H23 lung
NCI-H322M lung = test system: NCI-H322M lung
NCI-H460 NSCLC = test system: NCI-H460 NSCLC
NCI-H522 lung = test system: NCI-H522 lung
NCI/ADR-RES ovarian = test system: NCI/ADR-RES ovarian
OVCAR-3 ovarian = test system: OVCAR-3 ovarian
OVCAR-4 ovarian = test system: OVCAR-4 ovarian
OVCAR-5 ovarian = test system: OVCAR-5 ovarian
OVCAR-8 ovarian = test system: OVCAR-8 ovarian
PC-3 prostate = test system: PC-3 prostate
RPMI-8226 leukemia = test system: RPMI-8226 leukemia
RXF 393 renal = test system: RXF 393 renal
SF-268 CNS = test system: SF-268 CNS
SF-295 CNS = test system: SF-295 CNS
SF-539 CNS = test system: SF-539 CNS
SK-MEL-28 melanoma = test system: SK-MEL-28 melanoma
SK-MEL-5 melanoma = test system: SK-MEL-5 melanoma
SK-OV-3 ovarian = test system: SK-OV-3 ovarian
SN12C renal = test system: SN12C renal
SNB-19 CNS = test system: SNB-19 CNS
SNB-75 CNS = test system: SNB-75 CNS
SR leukemia = test system: SR leukemia
SW-620 colon = test system: SW-620 colon
T-47D breast = test system: T-47D breast
TK-10 renal = test system: TK-10 renal
U251 glioblastoma = test system: U251 glioblastoma
UACC-257 melanoma = test system: UACC-257 melanoma
UACC-62 melanoma = test system: UACC-62 melanoma
UO-31 renal = test system: UO-31 renal

COc1cc2nccc(Oc3ccc(NC(=O)NC4CC4)c(Cl)c3)c2cc1C(N)=O
59.4 µM: TGI (MDA-MB-231 breast)
63 µM: TGI (RPMI-8226 leukemia)
44.7 µM: TGI (OVCAR-4 ovarian)
77.8 µM: TGI (MALME-3M melanoma)
25.1 µM: TGI (RXF 393 renal)
64.9 µM: TGI (M14 melanoma)
50.9 µM: TGI (SR leukemia)
20.4 µM: TGI (BT-549 breast)
20.6 µM: TGI (NCI-H522 lung)
55.5 µM: TGI (SK-MEL-5 melanoma)
24.2 µM: TGI (ACHN renal)
71.1 µM: TGI (UO-31 renal)
38.3 µM: TGI (SNB-75 CNS)
78.7 µM: TGI (T-47D breast)
69.6 µM: TGI (A498 renal)
28 µM: TGI (HS 578T breast)
22.2 µM: TGI (NCI-H226 lung)
86.9 µM: TGI (SN12C renal)
23.3 µM: TGI (MOLT-4 leukemia)
78 µM: TGI (OVCAR-3 ovarian)
69.4 µM: TGI (SF-539 CNS)
> 100 µM: TGI (786-0 renal) | TGI (A549 NSCLC) | TGI (COLO 205 colon) | TGI (DU-145 prostate) | TGI (EKVX NSCLC) | TGI (HCC-2998 colon) | TGI (HCT-116 colon) | TGI (HCT-15 colon) | TGI (HOP-62 NSCLC) | TGI (HT29 colon) | TGI (KM12 colon) | TGI (LOX IMVI melanoma) | TGI (MCF7 breast) | TGI (MDA-MB-435 melanoma) | TGI (NCI-H322M lung) | TGI (NCI-H460 NSCLC) | TGI (NCI/ADR-RES ovarian) | TGI (OVCAR-5 ovarian) | TGI (OVCAR-8 ovarian) | TGI (PC-3 prostate) | TGI (SF-295 CNS) | TGI (SK-MEL-28 melanoma) | TGI (SK-OV-3 ovarian) | TGI (SNB-19 CNS) | TGI (SW-620 colon) | TGI (TK-10 renal) | TGI (U251 glioblastoma) | TGI (UACC-257 melanoma) | TGI (UACC-62 melanoma)
72.1 µM: TGI (HOP-92 NSCLC)
44.6 µM: TGI (SF-268 CNS)
68.9 µM: TGI (HL-60(TB) leukemia)
97.3 µM: TGI (IGROV1 ovarian)
55.8 µM: TGI (NCI-H23 lung)
66.2 µM: TGI (MDA-MB-468 breast)
inactive: GI50 (786-0 renal) 22.9 µM | GI50 (A498 renal) 22 µM | GI50 (A549 NSCLC) 40 µM | GI50 (ACHN renal) 11.6 µM | GI50 (BT-549 breast) 3.76 µM | GI50 (CAKI-1 renal) 9.97 µM | GI50 (COLO 205 colon) 69.5 µM | GI50 (DU-145 prostate) 26.1 µM | GI50 (EKVX NSCLC) 29.1 µM | GI50 (HCC-2998 colon) > 100 µM | GI50 (HCT-116 colon) 38.3 µM | GI50 (HCT-15 colon) 25.8 µM | GI50 (HL-60(TB) leukemia) 25.6 µM | GI50 (HOP-62 NSCLC) 38.2 µM | GI50 (HOP-92 NSCLC) 14.5 µM | GI50 (HS 578T breast) 12.2 µM | GI50 (HT29 colon) > 100 µM | GI50 (IGROV1 ovarian) 19.2 µM | GI50 (KM12 colon) 5.76 µM | GI50 (LOX IMVI melanoma) 52.2 µM | GI50 (M14 melanoma) 23.4 µM | GI50 (MALME-3M melanoma) 19.3 µM | GI50 (MCF7 breast) 35.4 µM | GI50 (MDA-MB-231 breast) 17.3 µM | GI50 (MDA-MB-435 melanoma) 74.1 µM | GI50 (MDA-MB-468 breast) 11.5 µM | GI50 (MOLT-4 leukemia) 5.38 µM | GI50 (NCI-H226 lung) 0.817 µM | GI50 (NCI-H23 lung) 14.2 µM | GI50 (NCI-H322M lung) 48.3 µM | GI50 (NCI-H460 NSCLC) 41 µM | GI50 (NCI-H522 lung) 5.29 µM | GI50 (NCI/ADR-RES ovarian) 63.8 µM | GI50 (OVCAR-3 ovarian) 17.9 µM | GI50 (OVCAR-4 ovarian) 14.7 µM | GI50 (OVCAR-5 ovarian) 50 µM | GI50 (OVCAR-8 ovarian) 25.5 µM | GI50 (PC-3 prostate) 61.7 µM | GI50 (RPMI-8226 leukemia) 11.7 µM | GI50 (RXF 393 renal) 3.53 µM | GI50 (SF-268 CNS) 15.9 µM | GI50 (SF-295 CNS) 30.1 µM | GI50 (SF-539 CNS) 2.41 µM | GI50 (SK-MEL-28 melanoma) 72.8 µM | GI50 (SK-MEL-5 melanoma) 17.8 µM | GI50 (SK-OV-3 ovarian) 35.9 µM | GI50 (SN12C renal) 13.4 µM | GI50 (SNB-19 CNS) 44.6 µM | GI50 (SNB-75 CNS) 12.1 µM | GI50 (SR leukemia) 31.4 µM | GI50 (SW-620 colon) 77.4 µM | GI50 (T-47D breast) 16.8 µM | GI50 (TK-10 renal) 51.5 µM | GI50 (U251 glioblastoma) 30.7 µM | GI50 (UACC-257 melanoma) 38.3 µM | GI50 (UACC-62 melanoma) 39.7 µM | GI50 (UO-31 renal) 15.9 µM
35.1 µM: TGI (CAKI-1 renal)
